This is an account of results in PMC9159100, “Intramitochondrial co-assembly between ATP and nucleopeptides induces cancer cell apoptosis” (Chemical Science, 2022).

Square brackets hold non-standard residues; d marks the D form. Peptide text beside a SMILES is read from it. * marks the point of attachment. Acetyl(thymin-1-yl) = Cc1cn(CC(=O)*)c(=O)[nH]c1=O; Cha = N[C@@H](CC1CCCCC1)C(=O)O

The subject of one series is IMR90 cells. The format is cell-based. The method, then: page 16: S7. Cell culture and MTT assay Cell culture: HeLa and IMR90 cells were purchased from American-type Culture Collection (ATCC, USA). Hela and IMR90 were cultured in Dulbecco’s Modified Eagle’s medium (DMEM) supplemented with 10% v fetal bovine serum (FBS), 100 U/mL penicillin and 100 μg/mL streptomycin. All cells were cultured at 37 °C in a […] For MTT assay, cells were seeded in a 96-well plate with the density of 5*103 cells per-well. After 24 hours seeding, the solutions of samples with a serial of concentr ations (5 concentrations and control) were added to each well. 10 μL MTT solution (5 mg/mL) was added to each well and incubated at 37°C for 2 days incubation and incubated for another 4 h, and then 100 μL of SDS-HCl solution was added to stop the reductio n reaction and dissolve the purple formazan. The absorbance of each well at 595 nm was measured by a multimode microplate reader. The cytotoxicity assay was performed three times and the average value of the three measurements was taken. ATP depletion method: Cells were pre -incubated with 10 mM sodium azide ( NaN3), 6 mM 2DG(2-deoxy-glucose) […] After 40 minutes, cells were washed with PBS and free medium. MNP/ADP complex was treated to ATP depleted HeLa cells for 48 hours to assess cytotoxicity.

Series [1] in a line: Turbidity / appearance of aqueous solution (photograph, transmittance at 280 nm). The conditions noted are these: 200 μM in aqueous solution, ATP added. The format is physicochemical. On the procedure: First, we investigated the self-assembly ability and interaction between MNP and ADP or ATP. […] As can be evinced from Fig. 1b and c, the formed nanostructure consisted of approximately 500 nm-sized micellar structures according to transmission electron microscopy (TEM) and scanning electron microscopy (SEM). This is further confirmed by the turbidity of the solution which was determined by transmittance using UV-Vis spectroscopy. […] Transmission electron (TEM) microscopy images of (a) MNP/ADP complex (scale bar: 100 nm) and (b) MNP/ATP complex at 200 μM concentration in aqueous solution (scale bar: 500 nm); (c) scanning electron microscopy image of the MNP/ATP complex at 200 μM concentration in aqueous solution (scale bar: 500 nm); (d) sample turbidity measured by transmittance at 280 nm (inset: photograph) of the MNP, MNP/ADP complex and MNP/ATP complex at 200 μM concentration in aqueous solution; (e) confocal images of the MNP-NBD/ATP complex (Scale bar: 1 μm); (f) photograph of the aqueous solutions of the control molecules (AcNP and MNP2) and MNP in a complex with ATP (concentration: 200 μM). […] S3. ^† Micellar structures characterized by green fluorescence (Fig. 1e) were observed by confocal laser scanning microscopy performed on the MNP-NBD/ATP complex at 200 μM concentration in aqueous solution. […]

Regarding `CC(=O)N[C@H](CCCNC(=N)N)C(=O)N[C@H](CCCNC(=N)N)C(=O)N[C@@H](CC1CCCCC1)C(=O)N[C@H](CCCNC(=N)N)C(=O)N[C@@H](CC1CCCCC1)C(=O)N[C@H](CCCNC(=N)N)C(=O)N[C@@H](CC1CCCCC1)C(=O)N[C@@H](Cc1ccccc1)C(=O)N[C@@H](Cc1ccccc1)C(=O)O` [AcNP, Ac–rrFxrFxrFxFF] (Ac-[dR][dR][Cha][dR][Cha][dR][Cha]FF-OH), in the series with IMR90 cells, the “toxicity toward IMR90 cells above 25 μM” value was “less toxicity” and the “toxicity toward IMR90 cells at 25 μM” value is recorded as “almost no toxicity”. For `Cc1cn(CC(=O)N[C@H](CCCNC(=N)N)C(=O)N[C@H](CCCNC(=N)N)C(=O)N[C@@H](CC2CCCCC2)C(=O)N[C@H](CCCNC(=N)N)C(=O)N[C@@H](CC2CCCCC2)C(=O)N[C@H](CCCNC(=N)N)C(=O)N[C@@H](CC2CCCCC2)C(=O)O)c(=O)[nH]c1=O` [MNP2, Thy–rrFxrFxrFx] ({Acetyl(thymin-1-yl)}-[dR][dR][Cha][dR][Cha][dR][Cha]-OH), the “appearance of solution in the presence of ATP” value in series [1] is recorded as “did not become cloudy”.
